Data reported in patent US6693165B2 (Merck & Co., Inc., priority 2000, dated 2004).
Numbered stars: 1 amine (or outer) side, 2 acyl side, 3 side chain; on linkers, the order of the positions; unused ones are H or OH. Bridge positions count the residues as written; N and C are the ends. Square brackets hold non-standard residues; d marks the D form. Peptide text beside a SMILES is read from it. dPhe(4-tBu) = CC(C)(C)c1ccc(C[C@@H](N)C(=O)O)cc1; dPhe(4-Cl) = N[C@H](Cc1ccc(Cl)cc1)C(=O)O; dPhe(4-F) = N[C@H](Cc1ccc(F)cc1)C(=O)O; d2Nal = N[C@H](Cc1ccc2ccccc2c1)C(=O)O; Maleoyl = O=C(/C=C\C(=O)[*:2])[*:1]; dBta = N[C@H](Cc1csc2ccccc12)C(=O)O; Suc = O=C(CCC(=O)[*:2])[*:1]; Dap = NC[C@H](N)C(=O)O

Key:
human MC4 receptor = biological target: T1, human MC4 receptor (Homo sapiens, UniProt P32245); assay: Competitive binding assay, human MC4 receptor; conditions: for IC50: CHO cell membranes expressing human MC4 receptor, 200 pM [125I]-NDP-α-MSH, three independent experiments, read-out: hMC-4R (binding data); for 3:4: selectivity ratio of hMC-3R to hMC-4R binding values; for 5:4: selectivity ratio of hMC-5R to hMC-4R binding values
T1 construct: expressed in transfected cells; host or cells: Chinese hamster ovary (CHO) cells
Method: (§1) The peptides of the present invention were evaluated for antagonist activity in receptor binding assay. Crude membrane preparations were obtained from Chinese hamster ovary cells expressing human MC3, MC4, and MC5 receptors. Cells were rinsed with phosphate-buffered saline (PBS) lacking CaCl2 or MgCl2 (Life Technologies, Gaithersburg, Md., USA), and then detached with enzyme-free dissociation media (Specialty Media, Lavellette, N.J., USA). Cells were pelleted at 2800×g for 10 min and resuspended in membrane buffer (20 mM Tris, pH 7.2, 5 mM ethylenediaminetetraacetic acid) with 5 μg/ml leupeptin, 5 μg/ml aprotinin, 40 μg/ml bacitracin, and 25 μg/ml pefabloc (Boehringer Mannheim). The cells were […] with 10 strokes by using a motor-driven Teflon-coated pestle in a glass homogenizer at low speed. The resulting cell suspension was centrifuged at 4100×g, 4° C., for 20 min. The pellet was resuspended in fresh membrane buffer with protease inhibitors, aliquoted, snap-frozen in liquid nitrogen, and stored at −80° C. The resulting crude membranes were titrated to determine the optimal level necessary for performing binding studies.
(§2) Binding reactions (total volume=250 μl) contained MBB (50 mM Tris, pH 7.2, 2 mM CaCl2, 1 mM MgCl2), 0.1% bovine serum albumin, crude membranes prepared from cells expressing human MC3, MC4, or MC5 receptor, 200 pM of [125I]-NDP-α-MSH (Amersham, Arlington Heighs, Ill., USA), and increasing concentrations of unlabeled test compounds dissolved in dimethylsulfoxide (final concentration=2%). Reactions were incubated for 1 h without shaking and then filtered through 96-well filter plates (Packard), presoaked in 1% polyethyleneimine. Filters were washed 3 times with TNE buffer (50 mM Tris, pH 7.4, 5 mM ethylene-diaminetetraacetic acid, 150 mM NaCl), dried and counted by using Microscint-20 in a Topcount scintillation counter (Packard).

human MC5 receptor = biological target: T2, human MC5 receptor (Homo sapiens, UniProt P33032); assay: Competitive binding assay, human MC5 receptor; conditions: CHO cell membranes expressing human MC5 receptor; 200 pM [125I]-NDP-α-MSH; three independent experiments; read-out: hMC-5R (binding data)
T2 construct: expressed in transfected cells; host or cells: Chinese hamster ovary (CHO) cells
Method: as §1, §2

human MC3 receptor = human MC3 receptor (Homo sapiens, UniProt P41968); assay: Competitive binding assay, human MC3 receptor; conditions: hMC-3R (binding data), CHO cell membranes expressing human MC3 receptor; 200 pM [125I]-NDP-α-MSH; three independent experiments
[1] = rats; cited from earlier work

T1 sequence (P32245 whole entry): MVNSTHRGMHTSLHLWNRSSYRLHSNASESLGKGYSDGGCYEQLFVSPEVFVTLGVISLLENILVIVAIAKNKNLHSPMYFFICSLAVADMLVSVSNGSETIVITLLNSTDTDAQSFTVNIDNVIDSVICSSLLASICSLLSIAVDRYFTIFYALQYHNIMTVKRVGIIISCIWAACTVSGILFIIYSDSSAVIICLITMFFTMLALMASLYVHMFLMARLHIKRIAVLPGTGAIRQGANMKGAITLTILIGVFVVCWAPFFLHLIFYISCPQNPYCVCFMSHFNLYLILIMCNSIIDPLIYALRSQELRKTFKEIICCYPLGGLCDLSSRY
Sequence of human MC3 receptor (P41968 whole entry): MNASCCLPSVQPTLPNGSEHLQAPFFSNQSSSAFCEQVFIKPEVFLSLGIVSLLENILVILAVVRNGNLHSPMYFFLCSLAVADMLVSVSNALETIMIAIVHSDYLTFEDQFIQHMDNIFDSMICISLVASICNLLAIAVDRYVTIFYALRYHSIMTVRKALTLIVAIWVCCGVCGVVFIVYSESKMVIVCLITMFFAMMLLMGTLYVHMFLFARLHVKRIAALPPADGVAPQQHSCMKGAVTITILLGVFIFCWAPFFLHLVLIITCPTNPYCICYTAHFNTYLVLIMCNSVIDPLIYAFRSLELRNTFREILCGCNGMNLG
T2 sequence (P33032 whole entry): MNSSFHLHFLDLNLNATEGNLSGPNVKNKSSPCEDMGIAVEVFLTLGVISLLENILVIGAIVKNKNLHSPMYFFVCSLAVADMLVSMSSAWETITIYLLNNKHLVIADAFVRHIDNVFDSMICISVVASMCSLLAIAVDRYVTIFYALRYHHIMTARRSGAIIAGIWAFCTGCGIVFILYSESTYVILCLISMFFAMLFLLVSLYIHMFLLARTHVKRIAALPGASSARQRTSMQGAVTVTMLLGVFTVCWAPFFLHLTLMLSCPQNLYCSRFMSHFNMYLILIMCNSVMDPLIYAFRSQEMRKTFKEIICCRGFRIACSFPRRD

IC50 (human MC4 receptor) [nM]	3:4 (human MC4 receptor)	5:4 (human MC4 receptor)	IC50 (human MC5 receptor) [nM]	IC50 (human MC3 receptor) [nM]	Compound	food intake [1]	body weight [1]
69 ± 12	81	44	3000 ± 1000	5600 ± 3900	N=C(N)NCCC[C@@H]1NC(=O)[C@@H](Cc2csc3ccccc23)NC(=O)CCC(=O)NCCCC[C@@H](C(N)=O)NC(=O)[C@H](Cc2c[nH]c3ccccc23)NC1=O [Example 16] ([dBta]RWK-NH2; linker N-4 via Suc)		
					MTII	reduced	
46 ± 6	37	54	2500 ± 1000	1500 ± 1100	CC(C)(C)c1ccc(C[C@H]2NC(=O)CCC(=O)NCCCC[C@@H](C(N)=O)NC(=O)[C@H](Cc3c[nH]c4ccccc34)NC(=O)[C@H](CCCNC(=N)N)NC2=O)cc1 [Example 14] ([dPhe(4-tBu)]RWK-NH2; linker N-4 via Suc)		
					HS024	increase	increase
0.2 ± 0.03	95	355	71 ± 8.4	19 ± 1.5	N=C(N)NCCC[C@@H]1NC(=O)[C@@H](Cc2ccc3ccccc3c2)NC(=O)[C@H](Cc2c[nH]cn2)NC(=O)CCC(=O)NC[C@@H](C(N)=O)NC(=O)[C@H](Cc2c[nH]c3ccccc23)NC1=O [Example 8] (H[d2Nal]RW[Dap]-NH2; linker N-5 via Suc)		
1.6 ± 0.2	168	337	540 ± 230	270 ± 24	N=C(N)NCCC[C@@H]1NC(=O)[C@@H](Cc2ccc3ccccc3c2)NC(=O)C2CC2C(=O)NCCCC[C@@H](C(N)=O)NC(=O)[C@H](Cc2c[nH]c3ccccc23)NC1=O (single isomer, unassigned) [11 b]		
1.7 ± 0.8	9	14	24 ± 6.7	16 ± 5.2	N=C(N)NCCC[C@@H]1NC(=O)[C@@H](Cc2ccc3ccccc3c2)NC(=O)[C@H](Cc2c[nH]cn2)NC(=O)[C@@H](N)CC(=O)NCCCC[C@@H](C(N)=O)NC(=O)[C@H](Cc2c[nH]c3ccccc23)NC1=O [Example 3]		
1 ± 0.1	52	200	200 ± 3.6	52 ± 7.9	N=C(N)NCCC[C@@H]1NC(=O)[C@@H](Cc2ccc3ccccc3c2)NC(=O)[C@H](Cc2c[nH]cn2)NC(=O)CCC(=O)NCCCC[C@@H](C(N)=O)NC(=O)[C@H](Cc2c[nH]c3ccccc23)NC1=O [Example 7] (H[d2Nal]RWK-NH2; linker N-5 via Suc)		
	300	270			N=C(N)NCCC[C@@H]1NC(=O)[C@@H](Cc2ccc3ccccc3c2)NC(=O)/C=C\C(=O)NCCCC[C@@H](C(N)=O)NC(=O)[C@H](Cc2c[nH]c3ccccc23)NC1=O [Example 12] ([d2Nal]RWK-NH2; linker N-4 via Maleoyl)		
4.7 ± 0.6	46	234	1100 ± 150	220 ± 6.7	CC(=O)N[C@H]1CC(=O)NCCCC[C@@H](C(N)=O)NC(=O)[C@H](Cc2c[nH]c3ccccc23)NC(=O)[C@H](CCCNC(=N)N)NC(=O)[C@@H](Cc2ccc3ccccc3c2)NC1=O [Example 6] (Ac-D[d2Nal]RWK-NH2; lactam 1-5)		
3.5 ± 0.3	163	126	440 ± 240	570 ± 290	N=C(N)NCCC[C@@H]1NC(=O)[C@@H](Cc2ccc(Cl)cc2)NC(=O)CCC(=O)NCCCC[C@@H](C(N)=O)NC(=O)[C@H](Cc2c[nH]c3ccccc23)NC1=O [Example 17] ([dPhe(4-Cl)]RWK-NH2; linker N-4 via Suc)		
44 ± 7	84	48	2100 ± 500	3700 ± 1200	NCCCC[C@@H]1NC(=O)[C@@H](Cc2ccc3ccccc3c2)NC(=O)CCC(=O)NCCCC[C@@H](C(N)=O)NC(=O)[C@H](Cc2c[nH]c3ccccc23)NC1=O [Example 20] ([d2Nal]KWK-NH2; linker N-4 via Suc)		
0.6 ± 0.1	216	316	190 ± 37	130 ± 16	N=C(N)NCCC[C@@H]1NC(=O)[C@@H](Cc2ccc3ccccc3c2)NC(=O)C2CC2C(=O)NCCCC[C@@H](C(N)=O)NC(=O)[C@H](Cc2c[nH]c3ccccc23)NC1=O (single isomer, unassigned) [11 a]		
70 ± 10	69	143	10000 ± 2000	4800 ± 1000	N=C(N)NCCC[C@@H]1NC(=O)[C@@H](Cc2ccc(F)cc2)NC(=O)CCC(=O)NCCCC[C@@H](C(N)=O)NC(=O)[C@H](Cc2c[nH]c3ccccc23)NC1=O [Example 19] ([dPhe(4-F)]RWK-NH2; linker N-4 via Suc)		
					SHU9119	increased	increased
40 ± 5	75	250	10000 ± 8700	3000 ± 1100	N=C(N)NCCC[C@@H]1NC(=O)[C@@H](Cc2ccc3ccccc3c2)NC(=O)[C@H](CCCCN)NC(=O)CCC(=O)NCCCC[C@@H](C(N)=O)NC(=O)[C@H](Cc2c[nH]c3ccccc23)NC1=O [Example 24] (K[d2Nal]RWK-NH2; linker N-5 via Suc)		
